Measured values from ChEMBL document CHEMBL4619828, “Discovery of Potent and Orally Bioavailable Small Molecule Antagonists of Toll-like Receptors 7/8/9 (TLR7/8/9)” (ACS Med Chem Lett, 2020).

Assays:
[1] = Cmax in mouse at 15 mg/kg, po; format: ADME, organism-based; parameters: dose 15 mg/kg, route oral; conditions: in vivo
[2] = Volume of distribution in steady state in mouse at 3 mg/kg, iv; format: ADME, organism-based; conditions: in vivo, read-out: Vdss
Toll-like receptor 9 = biological target: T1, Toll-like receptor 9 (Homo sapiens, UniProt Q9NR96); assay: Antagonist activity at TLR9 (unknown origin) in PBMC cells assessed as reduction of IL-6 production; format: cell-based
T1 sequence (Q9NR96 whole entry): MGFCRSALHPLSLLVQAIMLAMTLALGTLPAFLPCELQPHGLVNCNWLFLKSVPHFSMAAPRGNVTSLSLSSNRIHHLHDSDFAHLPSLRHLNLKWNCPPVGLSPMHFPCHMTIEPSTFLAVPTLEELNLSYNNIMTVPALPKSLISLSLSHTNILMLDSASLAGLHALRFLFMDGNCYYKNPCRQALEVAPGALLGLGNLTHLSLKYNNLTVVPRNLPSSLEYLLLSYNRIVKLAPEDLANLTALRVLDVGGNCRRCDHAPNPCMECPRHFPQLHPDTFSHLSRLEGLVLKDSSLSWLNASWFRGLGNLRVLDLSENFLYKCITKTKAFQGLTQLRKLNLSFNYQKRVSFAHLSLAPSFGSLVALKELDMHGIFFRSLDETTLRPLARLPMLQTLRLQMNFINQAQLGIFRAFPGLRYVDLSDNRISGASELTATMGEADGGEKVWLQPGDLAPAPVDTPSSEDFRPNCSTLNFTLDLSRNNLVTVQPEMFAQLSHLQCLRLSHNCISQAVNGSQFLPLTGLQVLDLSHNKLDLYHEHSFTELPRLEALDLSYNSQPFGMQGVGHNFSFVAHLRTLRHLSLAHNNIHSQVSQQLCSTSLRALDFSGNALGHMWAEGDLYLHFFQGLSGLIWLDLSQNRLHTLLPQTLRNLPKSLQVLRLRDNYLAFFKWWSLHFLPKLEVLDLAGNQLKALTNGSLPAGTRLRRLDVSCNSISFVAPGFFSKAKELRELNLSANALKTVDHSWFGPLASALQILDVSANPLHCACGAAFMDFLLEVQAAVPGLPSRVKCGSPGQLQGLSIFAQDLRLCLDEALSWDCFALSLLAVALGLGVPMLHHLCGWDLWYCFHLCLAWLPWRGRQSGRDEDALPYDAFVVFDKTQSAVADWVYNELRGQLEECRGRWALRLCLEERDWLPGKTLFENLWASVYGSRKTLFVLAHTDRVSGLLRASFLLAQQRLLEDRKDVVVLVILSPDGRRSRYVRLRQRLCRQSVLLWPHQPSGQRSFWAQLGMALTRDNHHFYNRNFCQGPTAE

Toll-like receptor 3 = biological target: T2, Toll-like receptor 3 (Homo sapiens, UniProt O15455); assay: Antagonist activity at human TLR3 overexpressed in HEK-Blue cells assessed as inhibition of Poly IC-induced NFkappaB and AP-1 activation preincubated for 30 mins followed by Poly IC stimulation measured after 22 hrs by quanti-blue SEAP assay; format: cell-based
T2 sequence (O15455 whole entry): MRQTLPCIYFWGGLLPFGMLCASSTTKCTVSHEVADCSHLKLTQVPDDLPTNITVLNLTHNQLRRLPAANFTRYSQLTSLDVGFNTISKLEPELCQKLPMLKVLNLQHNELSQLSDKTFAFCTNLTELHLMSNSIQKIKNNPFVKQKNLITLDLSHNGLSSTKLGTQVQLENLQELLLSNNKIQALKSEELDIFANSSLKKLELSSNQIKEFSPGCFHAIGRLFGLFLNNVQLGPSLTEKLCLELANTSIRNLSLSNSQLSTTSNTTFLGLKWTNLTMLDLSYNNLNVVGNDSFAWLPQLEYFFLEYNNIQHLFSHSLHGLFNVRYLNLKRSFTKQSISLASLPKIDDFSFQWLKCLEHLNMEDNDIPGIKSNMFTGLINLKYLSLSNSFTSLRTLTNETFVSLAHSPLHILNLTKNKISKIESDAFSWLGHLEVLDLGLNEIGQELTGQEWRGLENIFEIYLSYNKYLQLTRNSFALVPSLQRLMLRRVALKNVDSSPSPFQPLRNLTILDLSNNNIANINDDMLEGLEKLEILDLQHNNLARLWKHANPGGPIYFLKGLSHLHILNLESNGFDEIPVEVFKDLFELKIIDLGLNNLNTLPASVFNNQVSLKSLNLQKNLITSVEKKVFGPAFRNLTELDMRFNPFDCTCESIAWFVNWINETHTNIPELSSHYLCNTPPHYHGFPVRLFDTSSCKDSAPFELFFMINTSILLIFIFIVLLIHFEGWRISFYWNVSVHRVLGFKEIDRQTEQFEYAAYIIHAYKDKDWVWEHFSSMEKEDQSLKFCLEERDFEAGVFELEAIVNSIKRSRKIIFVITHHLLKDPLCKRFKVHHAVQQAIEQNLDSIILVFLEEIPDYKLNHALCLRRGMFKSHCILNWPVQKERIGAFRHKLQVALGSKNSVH

Cmax [1]: 1630 nM | Vd [2]: 20 L/kg | IC50 (Toll-like receptor 9): 0.51 µM | IC50 (Toll-like receptor 3): 5.44 µM
SMILES: CNCCN1CCC(c2ccc3[nH]c(-c4ccc(OC)c(OC)c4)c(C(C)C)c3c2)CC1
